Measured values published in ChEMBL document CHEMBL1132089, “Probing the role of interfacial residues in a dimerization inhibitor of HIV-1 protease” (Bioorg Med Chem Lett, 1999).
Where a SMILES comes first, the peptide text is derived from it. Bridges are numbered along the chain shown (N, C = ends). Roman numbers before positions name the chains, in order. The star is where a group is joined. C16 diacid = O=C(O)CCCCCCCCCCCCCCC(=O)*

Biological target: Human immunodeficiency virus type 1 protease (Human immunodeficiency virus 1) (UniProt Q72874)
Assay: Percent inhibition of HIV-1 protease at a concentration level of 25 nM relative to compound I was determined by UV absorbance

Compound | inhibition
CC[C@H](C)[C@H](NC(=O)[C@H](CCC(N)=O)NC(=O)[C@@H]1CCCN1C(=O)CCCCCCCCCCCCCCC(=O)N[C@@H](CO)C(=O)N[C@H](C(=O)N[C@@H](CC(C)C)C(=O)N[C@@H](CC(N)=O)C(=O)N[C@@H](Cc1ccccc1)C(=O)O)[C@@H](C)O)C(=O)N[C@@H](C)C(=O)N[C@@H](CC(C)C)C(=O)N[C@@H](Cc1c[nH]c2ccccc12)C(=O)O (I: PQIALW-OH / II: STLNF-OH; linker I:N-II:N via C16 diacid) | 3.3%
CC[C@H](C)[C@H](NC(=O)[C@H](CCC(N)=O)NC(=O)[C@@H]1CCCN1C(=O)CCCCCCCCCCCCCCC(=O)N[C@@H](CO)C(=O)N[C@@H](C)C(=O)N[C@@H](CC(C)C)C(=O)N[C@@H](CC(N)=O)C(=O)N[C@@H](Cc1ccccc1)C(=O)O)C(=O)N[C@H](C(=O)N[C@@H](CC(C)C)C(=O)N[C@@H](Cc1c[nH]c2ccccc12)C(=O)O)[C@@H](C)O (I: PQITLW-OH / II: SALNF-OH; linker I:N-II:N via C16 diacid) | 3.3%
CC[C@H](C)[C@H](NC(=O)[C@H](CCC(N)=O)NC(=O)[C@@H]1CCCN1C(=O)CCCCCCCCCCCCCCC(=O)N[C@@H](CO)C(=O)N[C@H](C(=O)N[C@@H](CC(C)C)C(=O)N[C@@H](CC(N)=O)C(=O)N[C@@H](C)C(=O)O)[C@H](C)O)C(=O)N[C@H](C(=O)N[C@@H](CC(C)C)C(=O)N[C@@H](Cc1c[nH]c2ccccc12)C(=O)O)[C@@H](C)O | 3.5%
CC(C)C[C@H](NC(=O)[C@@H](NC(=O)[C@H](CO)NC(=O)CCCCCCCCCCCCCCC(=O)N1CCC[C@H]1C(=O)N[C@@H](CCC(N)=O)C(=O)N[C@@H](C)C(=O)N[C@H](C(=O)N[C@@H](CC(C)C)C(=O)N[C@@H](Cc1c[nH]c2ccccc12)C(=O)O)[C@@H](C)O)[C@H](C)O)C(=O)N[C@@H](CC(N)=O)C(=O)N[C@@H](Cc1ccccc1)C(=O)O | 2.7%
CC[C@H](C)[C@H](NC(=O)[C@H](C)NC(=O)[C@@H]1CCCN1C(=O)CCCCCCCCCCCCCCC(=O)N[C@@H](CO)C(=O)N[C@H](C(=O)N[C@@H](CC(C)C)C(=O)N[C@@H](CC(N)=O)C(=O)N[C@@H](Cc1ccccc1)C(=O)O)[C@@H](C)O)C(=O)N[C@H](C(=O)N[C@@H](CC(C)C)C(=O)N[C@@H](Cc1c[nH]c2ccccc12)C(=O)O)[C@@H](C)O (I: PAITLW-OH / II: STLNF-OH; linker I:N-II:N via C16 diacid) | 0.8%
CC[C@H](C)[C@H](NC(=O)[C@H](CCC(N)=O)NC(=O)[C@@H]1CCCN1C(=O)CCCCCCCCCCCCCCC(=O)N[C@@H](CO)C(=O)N[C@H](C(=O)N[C@@H](CC(C)C)C(=O)N[C@@H](CC(N)=O)C(=O)N[C@@H](Cc1ccccc1)C(=O)O)[C@H](C)O)C(=O)N[C@H](C(=O)N[C@@H](C)C(=O)N[C@@H](Cc1c[nH]c2ccccc12)C(=O)O)[C@@H](C)O | 1.6%
CC[C@H](C)[C@H](NC(=O)[C@H](CCC(N)=O)NC(=O)[C@@H]1CCCN1C(=O)CCCCCCCCCCCCCCC(=O)N[C@@H](CO)C(=O)N[C@H](C(=O)N[C@@H](C)C(=O)N[C@@H](CC(N)=O)C(=O)N[C@@H](Cc1ccccc1)C(=O)O)[C@H](C)O)C(=O)N[C@H](C(=O)N[C@@H](CC(C)C)C(=O)N[C@@H](Cc1c[nH]c2ccccc12)C(=O)O)[C@@H](C)O | 4.5%
CC[C@H](C)[C@H](NC(=O)[C@H](CCC(N)=O)NC(=O)[C@@H]1CCCN1C(=O)CCCCCCCCCCCCCCC(=O)N[C@@H](C)C(=O)N[C@H](C(=O)N[C@@H](CC(C)C)C(=O)N[C@@H](CC(N)=O)C(=O)N[C@@H](Cc1ccccc1)C(=O)O)[C@H](C)O)C(=O)N[C@H](C(=O)N[C@@H](CC(C)C)C(=O)N[C@@H](Cc1c[nH]c2ccccc12)C(=O)O)[C@@H](C)O | 1.1%
CC[C@H](C)[C@H](NC(=O)[C@H](CCC(N)=O)NC(=O)[C@@H]1CCCN1C(=O)CCCCCCCCCCCCCCC(=O)N[C@@H](CO)C(=O)N[C@H](C(=O)N[C@@H](CC(C)C)C(=O)N[C@@H](C)C(=O)N[C@@H](Cc1ccccc1)C(=O)O)[C@H](C)O)C(=O)N[C@H](C(=O)N[C@@H](CC(C)C)C(=O)N[C@@H](Cc1c[nH]c2ccccc12)C(=O)O)[C@@H](C)O | 1.9%
CC[C@H](C)[C@H](NC(=O)[C@H](CCC(N)=O)NC(=O)[C@@H]1CCCN1C(=O)CCCCCCCCCCCCCCC(=O)N[C@@H](CO)C(=O)N[C@H](C(=O)N[C@@H](CC(C)C)C(=O)N[C@@H](CC(N)=O)C(=O)N[C@@H](Cc1ccccc1)C(=O)O)[C@@H](C)O)C(=O)N[C@H](C(=O)N[C@@H](CC(C)C)C(=O)N[C@@H](C)C(=O)O)[C@@H](C)O (I: PQITLA-OH / II: STLNF-OH; linker I:N-II:N via C16 diacid) | 26%
